Experimental data as given in ChEMBL document CHEMBL1131947, “Syntheses and biological activities of bis(3-indolyl)thiazoles, analogues of marine bis(indole)alkaloid nortopsentins” (1999).

Tests used:
Format in all cases: functional
HCT-15 = assay: In vitro growth inhibitory activity against human HCT-15 cancer cell line
MOLT-4 = assay: In vitro growth inhibitory activity against human MOLT-4 cancer cell line
MDA-N = assay: In vitro growth inhibitory activity against human MDA-N cancer MDA-N cell line
SR = assay: In vitro growth inhibitory activity against human SR cancer cell line
SF-295 = assay: In vitro growth inhibitory activity against human SF-295 cancer cell line
NCI-H23 = assay: In vitro growth inhibitory activity against human NCI-H23 cancer cell line
K562 = assay: In vitro growth inhibitory activity against human K-562 cancer cell line
MCF7 = assay: In vitro growth inhibitory activity against human MCF-7 cancer cell line

Row | GI50 (HCT-15) | GI50 (MOLT-4) | GI50 (NCI-H23) | GI50 (K562) | GI50 (MCF7) | SMILES | GI50 (MDA-N) | GI50 (SR) | GI50 (SF-295)
1 | 17.8 µM | 31.2 µM | 25.8 µM | 5.61 µM | 27.2 µM | Brc1ccc2c(-c3nc(-c4c[nH]c5ccccc45)cs3)c[nH]c2c1 | 31.5 µM | 12.2 µM | 9.23 µM
2 | 15.2 µM | 19.9 µM | 14.5 µM | 18.8 µM | 16.7 µM | Brc1ccc2c(-c3csc(-c4c[nH]c5ccccc45)n3)c[nH]c2c1 | 19.2 µM | 6.36 µM | 14.6 µM
3 | > 100 µM | 5.31 µM | > 100 µM | 3.27 µM | > 100 µM | c1ccc2c(-c3csc(-c4c[nH]c5ccccc45)n3)c[nH]c2c1 | 83 µM | 1.77 µM | 33.6 µM
4 | 8.5 µM | 5.8 µM | 14.1 µM | 4.69 µM | 6.46 µM | Brc1ccc2c(-c3csc(-c4c[nH]c5cc(Br)ccc45)n3)c[nH]c2c1 | 2.94 µM | 3.4 µM | 4.81 µM
